Data set [1] concerns dipeptidyl peptidase IV (DPP-IV). As to the kind of experiment: human placental DPP-IV (Calbiochem), 0.125 mU, added to test peptide in PBS at pH 7.4. The note with it: 37° C., up to 24 hours.
For another data set, the target named is DPP-IV (Homo sapiens, UniProt P27487). The experiment in a line: Assay for resistance to dipeptidyl peptidase IV (RP-HPLC of cleavage product). The note with it: human, isolated human placental DPP-IV (dipeptidyl peptidase IV), pH 7.4, % Cleaved by DPP-IV, as Example 3: human placental DPP-IV, 37° C., PBS pH 7.4.
Chain of DPP-IV (P27487 whole entry): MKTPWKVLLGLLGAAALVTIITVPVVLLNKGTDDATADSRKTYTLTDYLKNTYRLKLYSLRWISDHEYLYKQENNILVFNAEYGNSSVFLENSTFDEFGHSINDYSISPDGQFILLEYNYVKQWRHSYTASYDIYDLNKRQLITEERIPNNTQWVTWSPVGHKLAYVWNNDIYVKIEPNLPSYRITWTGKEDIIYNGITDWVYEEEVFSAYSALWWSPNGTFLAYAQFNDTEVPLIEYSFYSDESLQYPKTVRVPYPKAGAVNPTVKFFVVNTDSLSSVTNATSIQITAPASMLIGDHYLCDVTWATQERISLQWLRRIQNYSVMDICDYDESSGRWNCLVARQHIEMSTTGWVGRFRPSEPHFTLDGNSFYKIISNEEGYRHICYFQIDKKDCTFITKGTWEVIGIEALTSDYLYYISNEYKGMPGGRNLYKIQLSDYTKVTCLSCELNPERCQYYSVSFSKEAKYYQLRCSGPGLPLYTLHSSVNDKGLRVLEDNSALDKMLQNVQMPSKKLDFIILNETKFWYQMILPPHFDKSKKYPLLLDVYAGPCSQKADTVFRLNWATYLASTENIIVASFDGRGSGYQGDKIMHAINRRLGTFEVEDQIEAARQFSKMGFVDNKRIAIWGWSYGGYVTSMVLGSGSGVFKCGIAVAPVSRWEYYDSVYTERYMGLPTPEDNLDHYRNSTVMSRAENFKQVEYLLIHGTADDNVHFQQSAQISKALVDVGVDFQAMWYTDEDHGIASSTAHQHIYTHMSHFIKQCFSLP
The next data set deals with CD1 mice. The experiment in a line: Intestinotrophic activity assessment: small bowel weight in mice. The note with it: for % Activity (small bowel inducing activity relative to native rat GLP-2(1-33) = 100%): mice, as Example 4; for % Increase in small bowel weight: CD1 mice, 2.5 μg peptide s.c. b.i.d. in PBS, sacrificed 10 or 14 days, relative to vehicle only. The class given is in vivo. A digest of the protocol: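 Female CD1 mice, 6 weeks old (n=3-4/group), given 2.5 μg peptide s.c. b.i.d. in PBS; sacrificed 10 or 14 days later after ≥20 h fast. Small bowel (pylorus to cecum) weighed; percent change versus vehicle mice, also expressed relative to rat GLP-2(1-33) set as 100%.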

Non-standard residues stand in square brackets, D forms with d. No end group written: not given here. Phg = N[C@H](C(=O)O)c1ccccc1; Nva = CCC[C@H](N)C(=O)O; Aib = CC(C)(N)C(=O)O

For “Ac-ratGLP-2(1-33) (Ac-HADGSFSDEMNTILDNLATRDFINWLIQTKITD-OH)”, in data set [1], the not cleaved is listed as 0% cleaved by DPP-IV.

Regarding “H-HTDGSFSDEMNTILDNLAARDFINWLIQTKITD-OH [[Thr2]hGLP-2(1-33)]”, the metabolised at 24 h, 0.19 mg/ml at DPP-IV amounted to 0%. Besides, in the data set on CD1 mice, the “% Activity (small bowel inducing activity relative to native rat GLP-2(1-33) = 100%)” value is given as 117%.

“H-HVDGSFSDEMNTILDNLAARDFINWLIQTKITD-OH [[Val2]hGLP-2(1-33)]” gave a metabolised at 24 h, 0.19 mg/ml on DPP-IV of 13%. In addition, the “% Activity (small bowel inducing activity relative to native rat GLP-2(1-33) = 100%)” value in the data set on CD1 mice is 180%.

“H-HYDGSFSDEMNTILDNLAARDFINWLIQTKITD-OH [[Tyr2]hGLP-2(1-33)]”: the metabolised at 24 h, 0.19 mg/ml at DPP-IV was determined as 0%. In addition, the “% Activity (small bowel inducing activity relative to native rat GLP-2(1-33) = 100%)” value in the data set on CD1 mice came out at 57%.

With “H-PADGSFSDEMNTILDNLAARDFINWLIQTKITD-OH [[Pro1]hGLP-2(1-33)]”, the metabolised at 24 h, 0.19 mg/ml on DPP-IV is 0%. The “% Activity (small bowel inducing activity relative to native rat GLP-2(1-33) = 100%)” value in the data set with CD1 mice was 12%.

With “H-RHADGSFSDEMNTILDNLATRDFINWLIQTKITD-OH [[Arg-l]ratGLP-2(-1-33)]”, the metabolised at 24 h, 0.19 mg/ml at DPP-IV came out at 0%. Further, in the data set with CD1 mice, the “% Activity (small bowel inducing activity relative to native rat GLP-2(1-33) = 100%)” value was 11%.

At DPP-IV, “H-YADGSFSDEMNTILDNLATRDFINWLIQTKITD-OH [[Tyr1]ratGLP-2(1-33)]” showed a metabolised at 24 h, 0.19 mg/ml of 100%. Also, in the data set on CD1 mice, the “% Increase in small bowel weight” value was found to be 37% and the “% Activity (small bowel inducing activity relative to native rat GLP-2(1-33) = 100%)” value is reported as 81%.

The substance “H-YGDGSFSDEMNTILDNLAARDFINWLIQTKITD-OH [[Tyr1, Gly2]hGLP-2(1-33)]” displayed a metabolised at 24 h, 0.19 mg/ml at DPP-IV of 0%. For the same substance, the “% Activity (small bowel inducing activity relative to native rat GLP-2(1-33) = 100%)” value with CD1 mice amounted to 241%.

At DPP-IV, “HVDGSFSDEMNTILDNLATRDFINWLIQTKITD [[Val2]GLP-2(1-33)]” came in with a metabolised at 24 h, 0.19 mg/ml of 0%. For the same substance, in the data set with CD1 mice, the “% Increase in small bowel weight” value was determined as 65% and the “% Activity (small bowel inducing activity relative to native rat GLP-2(1-33) = 100%)” value was determined as 145%.

Consider “[Aib2]hGLP-2(1-33) (H-H[Aib]DGSFSDEMNTILDNLAARDFINWLIQTKITD-OH; SMILES CC[C@H](C)[C@H](NC(=O)[C@H](Cc1ccccc1)NC(=O)[C@H](CC(=O)O)NC(=O)[C@H](CCCNC(=N)N)NC(=O)[C@H](C)NC(=O)[C@H](C)NC(=O)[C@H](CC(C)C)NC(=O)[C@H](CC(N)=O)NC(=O)[C@H](CC(=O)O)NC(=O)[C@H](CC(C)C)NC(=O)[C@@H](NC(=O)[C@@H](NC(=O)[C@H](CC(N)=O)NC(=O)[C@H](CCSC)NC(=O)[C@H](CCC(=O)O)NC(=O)[C@H](CC(=O)O)NC(=O)[C@H](CO)NC(=O)[C@H](Cc1ccccc1)NC(=O)[C@H](CO)NC(=O)CNC(=O)[C@H](CC(=O)O)NC(=O)C(C)(C)NC(=O)[C@@H](N)Cc1c[nH]cn1)[C@@H](C)O)[C@@H](C)CC)C(=O)N[C@@H](CC(N)=O)C(=O)N[C@@H](Cc1c[nH]c2ccccc12)C(=O)N[C@@H](CC(C)C)C(=O)N[C@H](C(=O)N[C@@H](CCC(N)=O)C(=O)N[C@H](C(=O)N[C@@H](CCCCN)C(=O)N[C@H](C(=O)N[C@H](C(=O)N[C@@H](CC(=O)O)C(=O)O)[C@@H](C)O)[C@@H](C)CC)[C@@H](C)O)[C@@H](C)CC)”, for which, in data set [1], the not cleaved came out at 0% cleaved by DPP-IV.

Consider “[Ala1,Gly2]hGLP-2(1-33) (H-AGDGSFSDEMNTILDNLAARDFINWLIQTKITD-OH)”, for which the not cleaved in data set [1] is reported as 0% cleaved by DPP-IV.

In data set [1], [Arg-2,Arg-1]ratGLP-2(2-33) gave a not cleaved of 0% cleaved by DPP-IV.

Regarding “[Arg-l]ratGLP-2(-1-33) (H-RHADGSFSDEMNTILDNLATRDFINWLIQTKITD-OH)”, the not cleaved in data set [1] is 0% cleaved by DPP-IV.

On to “[Asn2]hGLP-2(1-33) (H-HNDGSFSDEMNTILDNLAARDFINWLIQTKITD-OH)”, for which the not cleaved in data set [1] is reported as 0% cleaved by DPP-IV.

The substance “[Asp1]hGLP-2(1-33) (H-DADGSFSDEMNTILDNLAARDFINWLIQTKITD-OH)” showed a not cleaved in data set [1] of 0% cleaved by DPP-IV.

Consider “[Asp2]hGLP-2(1-33) (H-HDDGSFSDEMNTILDNLAARDFINWLIQTKITD-OH)”, for which, in data set [1], the not cleaved was 0% cleaved by DPP-IV.

[D-Ala2]hGLP-2(1-33) had a not cleaved in data set [1] of 0% cleaved by DPP-IV.

“[Gln2]hGLP-2(1-33) (H-HQDGSFSDEMNTILDNLAARDFINWLIQTKITD-OH)” returned a not cleaved in data set [1] of 0% cleaved by DPP-IV.

“[Glu2]hGLP-2(1-33) (H-HEDGSFSDEMNTILDNLAARDFINWLIQTKITD-OH)” registered a not cleaved in data set [1] of 0% cleaved by DPP-IV.

In data set [1], [Gly2, Arg34]hGLP-2(1-34) gave a not cleaved of 0% cleaved by DPP-IV.

[Gly2, Tyr34]hGLP-2(1-34) gave a not cleaved in data set [1] of 0% cleaved by DPP-IV.

As for “[Gly2,Ala3]hGLP-2(1-33) (H-HGAGSFSDEMNTILDNLAARDFINWLIQTKITD-OH)”, the not cleaved in data set [1] was found to be 0% cleaved by DPP-IV.

As to “[Gly2,Ala4]hGLP-2(1-33) (H-HGDASFSDEMNTILDNLAARDFINWLIQTKITD-OH)”, the not cleaved in data set [1] came to 0% cleaved by DPP-IV.

“[Gly2,Ala5]hGLP-2(1-33) (H-HGDGAFSDEMNTILDNLAARDFINWLIQTKITD-OH)” came in with a not cleaved in data set [1] of 0% cleaved by DPP-IV.

For the substance “[Gly2,Ala24]hGLP-2(1-33) (H-HGDGSFSDEMNTILDNLAARDFIAWLIQTKITD-OH)”, the not cleaved in data set [1] is 0% cleaved by DPP-IV.

In turn, [Gly2]hGLP-2(1-33) registered a not cleaved in data set [1] of 0% cleaved by DPP-IV.

Take “[His2]hGLP-2(1-33) (H-HHDGSFSDEMNTILDNLAARDFINWLIQTKITD-OH)”: the not cleaved in data set [1] was found to be 0% cleaved by DPP-IV.

For the substance “[Ile2]hGLP-2(1-33) (H-HIDGSFSDEMNTILDNLAARDFINWLIQTKITD-OH)”, the not cleaved in data set [1] is 0% cleaved by DPP-IV.

“[Lys2]hGLP-2(1-33) (H-HKDGSFSDEMNTILDNLAARDFINWLIQTKITD-OH)” came in with a not cleaved in data set [1] of 0% cleaved by DPP-IV.

In data set [1], “[Met2]hGLP-2(1-33) (H-HMDGSFSDEMNTILDNLAARDFINWLIQTKITD-OH)” displayed a not cleaved of 0% cleaved by DPP-IV.

Consider “[Nval2]hGLP-2(1-33) (H-H[Nva]DGSFSDEMNTILDNLAARDFINWLIQTKITD-OH; SMILES CCC[C@H](NC(=O)[C@@H](N)Cc1c[nH]cn1)C(=O)N[C@@H](CC(=O)O)C(=O)NCC(=O)N[C@@H](CO)C(=O)N[C@@H](Cc1ccccc1)C(=O)N[C@@H](CO)C(=O)N[C@@H](CC(=O)O)C(=O)N[C@@H](CCC(=O)O)C(=O)N[C@@H](CCSC)C(=O)N[C@@H](CC(N)=O)C(=O)N[C@H](C(=O)N[C@H](C(=O)N[C@@H](CC(C)C)C(=O)N[C@@H](CC(=O)O)C(=O)N[C@@H](CC(N)=O)C(=O)N[C@@H](CC(C)C)C(=O)N[C@@H](C)C(=O)N[C@@H](C)C(=O)N[C@@H](CCCNC(=N)N)C(=O)N[C@@H](CC(=O)O)C(=O)N[C@@H](Cc1ccccc1)C(=O)N[C@H](C(=O)N[C@@H](CC(N)=O)C(=O)N[C@@H](Cc1c[nH]c2ccccc12)C(=O)N[C@@H](CC(C)C)C(=O)N[C@H](C(=O)N[C@@H](CCC(N)=O)C(=O)N[C@H](C(=O)N[C@@H](CCCCN)C(=O)N[C@H](C(=O)N[C@H](C(=O)N[C@@H](CC(=O)O)C(=O)O)[C@@H](C)O)[C@@H](C)CC)[C@@H](C)O)[C@@H](C)CC)[C@@H](C)CC)[C@@H](C)CC)[C@@H](C)O)”, for which, in data set [1], the not cleaved worked out at 0% cleaved by DPP-IV.

Consider “[PhGly2]hGLP-2(1-33) (H-H[Phg]DGSFSDEMNTILDNLAARDFINWLIQTKITD-OH; SMILES CC[C@H](C)[C@H](NC(=O)[C@H](Cc1ccccc1)NC(=O)[C@H](CC(=O)O)NC(=O)[C@H](CCCNC(=N)N)NC(=O)[C@H](C)NC(=O)[C@H](C)NC(=O)[C@H](CC(C)C)NC(=O)[C@H](CC(N)=O)NC(=O)[C@H](CC(=O)O)NC(=O)[C@H](CC(C)C)NC(=O)[C@@H](NC(=O)[C@@H](NC(=O)[C@H](CC(N)=O)NC(=O)[C@H](CCSC)NC(=O)[C@H](CCC(=O)O)NC(=O)[C@H](CC(=O)O)NC(=O)[C@H](CO)NC(=O)[C@H](Cc1ccccc1)NC(=O)[C@H](CO)NC(=O)CNC(=O)[C@H](CC(=O)O)NC(=O)[C@@H](NC(=O)[C@@H](N)Cc1c[nH]cn1)c1ccccc1)[C@@H](C)O)[C@@H](C)CC)C(=O)N[C@@H](CC(N)=O)C(=O)N[C@@H](Cc1c[nH]c2ccccc12)C(=O)N[C@@H](CC(C)C)C(=O)N[C@H](C(=O)N[C@@H](CCC(N)=O)C(=O)N[C@H](C(=O)N[C@@H](CCCCN)C(=O)N[C@H](C(=O)N[C@H](C(=O)N[C@@H](CC(=O)O)C(=O)O)[C@@H](C)O)[C@@H](C)CC)[C@@H](C)O)[C@@H](C)CC)”, for which the not cleaved in data set [1] was 0% cleaved by DPP-IV.

On to “[Phe2]hGLP-2(1-33) (H-HFDGSFSDEMNTILDNLAARDFINWLIQTKITD-OH)”, for which the not cleaved in data set [1] is on record as 0% cleaved by DPP-IV.

As to “[Pro1]hGLP-2(1-33) (H-PADGSFSDEMNTILDNLAARDFINWLIQTKITD-OH)”, the not cleaved in data set [1] turned out to be 0% cleaved by DPP-IV.

With “[Pro3]hGLP-2(1-33) (H-HAPGSFSDEMNTILDNLAARDFINWLIQTKITD-OH)”, in data set [1], the not cleaved worked out at 0% cleaved by DPP-IV.

As for “[Ser2]hGLP-2(1-33) (H-HSDGSFSDEMNTILDNLAARDFINWLIQTKITD-OH)”, in data set [1], the not cleaved was determined as 0% cleaved by DPP-IV.

In data set [1], “[Thr2]hGLP-2(1-33) (H-HTDGSFSDEMNTILDNLAARDFINWLIQTKITD-OH)” had a not cleaved of 0% cleaved by DPP-IV.

“[Thr^19]hGLP-2(1-33) (H-HADGSFSDEMNTILDNLATRDFINWLIQTKITD-OH)”: the cleaved bond result in data set [1] is given as “Ala2-Asp3, 24 hours”.

“[Tyr1, Gly2]hGLP-2(1-33) (H-YGDGSFSDEMNTILDNLAARDFINWLIQTKITD-OH)” displayed a not cleaved in data set [1] of 0% cleaved by DPP-IV.

In data set [1], “[Tyr2]hGLP-2(1-33) (H-HYDGSFSDEMNTILDNLAARDFINWLIQTKITD-OH)” showed a not cleaved of 0% cleaved by DPP-IV.

In data set [1], [Val2]GLP-2(1-33) showed a not cleaved of 0% cleaved by DPP-IV.
